Columns and labels:
human SIRT1 = target: T1, human SIRT1 (Homo sapiens, UniProt Q96EB6); assay: PncA/GDH-coupled deacylation assay, SIRT1 activation (p53-acK381 substrate); assay type: biochemical; settings: for effect on SIRT1: 10 μM compound; for SIRT1 activation: 100 μM compound
T1 construct: using constructs in pET15b (Sirt1); His tag (N, cleaved yes); made in house; host or cells: Escherichia coli
T1 sequence (Q96EB6 1-747): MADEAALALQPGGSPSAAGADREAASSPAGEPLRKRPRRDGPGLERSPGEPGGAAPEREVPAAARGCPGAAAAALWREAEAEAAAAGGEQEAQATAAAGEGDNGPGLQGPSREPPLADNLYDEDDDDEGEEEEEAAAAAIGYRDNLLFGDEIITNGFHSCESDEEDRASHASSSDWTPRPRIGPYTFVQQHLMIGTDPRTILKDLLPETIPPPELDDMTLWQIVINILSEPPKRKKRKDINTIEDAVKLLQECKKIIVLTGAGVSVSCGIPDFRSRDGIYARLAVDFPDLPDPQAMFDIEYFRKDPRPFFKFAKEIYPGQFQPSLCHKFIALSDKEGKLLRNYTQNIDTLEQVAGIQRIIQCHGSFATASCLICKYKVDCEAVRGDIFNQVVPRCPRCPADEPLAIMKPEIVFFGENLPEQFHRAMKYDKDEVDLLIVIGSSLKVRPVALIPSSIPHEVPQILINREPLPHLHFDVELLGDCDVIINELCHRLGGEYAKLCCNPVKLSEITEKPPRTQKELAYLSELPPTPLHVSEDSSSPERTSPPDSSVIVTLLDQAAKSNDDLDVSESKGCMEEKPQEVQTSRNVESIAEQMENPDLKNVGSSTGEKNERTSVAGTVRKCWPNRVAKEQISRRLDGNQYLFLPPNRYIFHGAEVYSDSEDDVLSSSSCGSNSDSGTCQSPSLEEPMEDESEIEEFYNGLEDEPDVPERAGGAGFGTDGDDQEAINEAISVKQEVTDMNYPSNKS
Protocol: (§1) To avoid artifacts and other non-specific effects, instead of the “Fluor-de-Lys” (FdL) substrate, we used a PncA/GDH-coupled deacylation assay by measuring the NADPH oxidation to NADP^+ that relies on isoform-specific non-modified physiological acetyl or succinyl substrates [p53-acK381 for SIRT1, α-tubulin-[…] for SIRT2, acetyl-CoA synthetase 2 (ACS2)-acK642 for SIRT3, and CPS1-succK537 for SIRT5].[59] The assays were carried out using the 1,4-DHP derivatives 2a–n and 3a–d against SIRT3, including the prototype compounds 2 and 3 as positive controls.
(§2) N-terminally his-tagged human sirtuins were expressed in Escherichia coli using constructs in pET15b (Sirt1) or pET151D/Topo (Sirt3-114-380 and Sirt5-34-302).[4],[59],[61] Sirt2-43-356 was expressed from a modified pET19b containing a TEV protease cleavage site and an N-terminal SUMO-tag.[59],[79] Proteins were expressed and purified as described elsewhere.[59],[61],[79]−[81] In brief, proteins were expressed in E. coli, crude extracts were cleared by centrifugation, and the proteins were affinity purified using NiNTA beads.
(§3) Sirtuin deacylation activities were analyzed by using a coupled enzymatic assay as described in.[59],[82] For initial modulation screenings, substrate peptide specificity analysis, and compound titrations, 1.5 μM sirtuin was incubated with 50 μM substrate peptide and 100 μM NAD^+ in absence or presence of 10 μM, 100 μM or the indicated concentration of 1,4-DHP at a final DMSO concentration of 5%. For kinetic experiments, 1.5 μM sirtuin was incubated with saturating concentrations of either substrate peptide (0.4 mM) or NAD^+ (2 mM), with the second substrate’s concentration being varied in absence or presence of 200 μM 1,4-DHP at a final concentration of 5% DMSO. Potential 1,4-DHP effects on the coupled enzymes GDH and nicotinamidase were tested in control assays containing 50 μM NAM instead of the substrate peptide.

[1] = test system: GDH activity in MDA-MB-231 cells; assay: GDH activity assay in lysates of treated MDA-MB-231 cells; assay type: cell-based, human; settings: 50 μM, 4 h
Protocol: Selected compounds 3a–d were tested in triple-negative breast cancer MDA-MB-231 cells to evaluate their effects on SIRT3 physiological substrates. First, the effect on the activity of GDH (an established SIRT3 substrate activated through deacetylation[60]−[62]) was investigated by a coupled enzyme assay. […] These effects of SIRT3 activators clearly phenocopied those observed in the SIRT3-overexpressing MDA-MB-231 cells (SIRT3^+) (Figure 6).
GDH activity in cells treated or not with the SIRT3 activators 3a–d and the reference compounds 2 and 3 was measured using a GDH activity assay kit (MAK099, Merck) following the manufacturer’s instructions. Briefly, 10^6 cells were lysed in 40 μL of GDH assay buffer and kept for 10 min in ice. Afterward, lysates were centrifuged to collect supernatants. Ten microliters of supernatant were added to 40 μL of GDH buffer and 100 μL of a mix containing GDH assay buffer, developer, and glutamate. The whole mix was transferred into a 96-well plate and incubated at 37 °C for 3 min. Finally, absorbance was read at 450 nm using a GloMax multi detection system (Promega, Milan, Italy). The absorbance of the assay buffer was subtracted from each experimental sample.

human SIRT2 = target: T2, human SIRT2 (Homo sapiens, UniProt Q8IXJ6); assay: PncA/GDH-coupled deacylation assay, SIRT2 activation (α-tubulin-acK25 substrate); assay type: biochemical; settings: for effect on SIRT2: 10 μM compound; for SIRT2 activation: 100 μM compound
T2 construct: Sirt2-43-356 was expressed from a modified pET19b; SUMO-tag (with TEV protease cleavage site) (N, cleaved yes); His tag (N, cleaved yes); made in house; host or cells: Escherichia coli
T2 sequence (Q8IXJ6 43-356): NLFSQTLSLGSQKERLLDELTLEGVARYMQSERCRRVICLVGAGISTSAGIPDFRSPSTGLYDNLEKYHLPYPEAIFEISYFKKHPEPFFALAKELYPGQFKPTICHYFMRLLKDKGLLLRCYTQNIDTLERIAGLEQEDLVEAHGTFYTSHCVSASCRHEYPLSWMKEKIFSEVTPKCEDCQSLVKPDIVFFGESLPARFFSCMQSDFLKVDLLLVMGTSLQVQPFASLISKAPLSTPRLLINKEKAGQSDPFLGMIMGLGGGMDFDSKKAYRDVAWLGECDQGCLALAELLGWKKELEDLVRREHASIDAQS
Protocol: as §1, §2, §3

Row | SMILES | effect on SIRT1 (human SIRT1) | SIRT1 activation (human SIRT1) | effect on GDH activity in cell lysates [1] | effect on SIRT2 (human SIRT2) | SIRT2 activation (human SIRT2) | GDH activation [1]
1 | CCOC(=O)C1=CN(C(=O)c2cccc(OC)c2)C=C(C(=O)OCC)C1c1ccccc1 [Compound 3a, Diethyl 1-(3-methoxybenzoyl)-4-phenyl-1,4-dihydropyridine-3,5-dicarboxylate] | negligible effects | 164% | increase in GDH activity | negligible effects | 130% | –
2 | CCOC(=O)C1=CN(C(=O)c2ccc(OC)c(OC)c2)C=C(C(=O)OCC)C1c1ccccc1 [Compound 3c, Diethyl 1-(3,4-dimethoxybenzoyl)-4-phenyl-1,4-dihydropyridine-3,5-dicarboxylate] | negligible effects | 156% | increase in GDH activity | negligible effects | 136% | –
3 | CCOC(=O)C1=CN(C(=O)c2cc(OC)cc(OC)c2)C=C(C(=O)OCC)C1c1ccccc1 [Compound 3d, Diethyl 1-(3,5-dimethoxybenzoyl)-4-phenyl-1,4-dihydropyridine-3,5-dicarboxylate] | negligible effects | 130% | increase in GDH activity | negligible effects | – | around 175%
